Legend:
solubility in water = type: physicochemical; conditions: found by applicants
[1] = solubility in organic solvents; type: physicochemical
subjects [2] = assay: paresthesia after administration of N-acetyl beta alanine to subjects; type: in vivo, human
Description: For the exemplary purposes of this disclosure, the Applicants have administered N-acetyl beta alanine to over 30 different subjects in doses ranging from 1 to even 10 grams.

well trained athletes = assay: effects reported by well trained athletes given N-acetyl-beta alanine; type: in vivo, human; conditions: 5 grams per day x1, 10 well trained athletes, self-report
Description: For the exemplary purposes of this disclosure, the Applicants have also administered N-acetyl-beta alanine at a dose of 5 grams per day ×1 in 10 subjects, all of them well trained athletes that had in the past used beta alanine and were well aware of it's benefits. All of the subjects had not used beta alanine for at least a month. They were asked to report the effects of the “new beta alanine preparation” they were offered.

fructose-fed rats = conditions: preliminary experiment; cited from earlier work
mice = conditions: cited from earlier work
[3] = described (literature); cited from earlier work
elderly men and women = conditions: cited from earlier work
[4] = single ingested dose; cited from earlier work
[5] = cited from earlier work
subjects [6] = conditions: 10 weeks of resistance training with supplementation; cited from earlier work
[7] = cited from earlier work; remark: listed apart in the source
individuals = conditions: cited from earlier work
[8] = tested on: experienced resistance-trained athletes; conditions: four weeks of supplementation; cited from earlier work

SMILES: CC(=O)NCCC(=O)O [N-acetyl beta alanine, 3-acetamidopropanoic acid]
- solubility in water (solubility in water): 22 g/100 mL
- solubility in water and organic solvents [1]: soluble in water and organic solvents
- paresthesia (subjects [2]; large doses of 5+ grams): no paresthesia observed
- paresthesia or negative feelings described by users (subjects [2]; over 30 subjects, doses ranging from 1 to 10 grams): No paresthesia or negative feelings
- rate at which full benefits were exhibited (well trained athletes): full benefits were exhibited at a faster rate
- reported effectiveness compared with normal beta-alanine (well trained athletes): improved effectiveness over normal beta-alanine

SMILES: NCCC(=O)N[C@@H](Cc1cnc[nH]1)C(=O)O [carnosine]
- diabetes-associated increase in blood pressure (fructose-fed rats): suppressed diabetes-associated increase in blood pressure

SMILES: NCCC(=O)O [beta alanine, β-Alanine]
- behavioral effect of supplemented diet (mice): anxiolytic-like effect
- water solubility [3]: 55-89 grams/100 ml
- increase in physical working capacity fatigue threshold (elderly men and women; 800 mg x3 per day, elderly (55-92 years)): 28%
- physical working capacity / onset of neuromuscular fatigue (elderly men and women; ninety days of supplementation, elderly men and women): may increase physical working capacity by delaying the onset of neuromuscular fatigue
- single dose above which symptoms of paresthesia may be observed [4]: higher than 800 mg
- maximal strength or VO2max ([5]; in vivo): does not improve maximal strength or VO2max
- onset of neuromuscular fatigue ([5]; in vivo): delay the onset of neuromuscular fatigue
- performance in high-intensity exercise ([5]; multiple bouts of high-intensity exercise and single bouts lasting more than 60 s): improvements in performance
- increase in Muscle-Carnosine (subjects [6]): 12.81+/−7.97 mmol×kg (−1) dry muscle
- acidosis due to exercise ([7]; 4.8 grams per day): can attenuate acidosis due to exercise
- fall in blood pH during high-intensity exercise ([7]; chronic supplementation): can attenuate the fall in blood pH
- aerobic capacity (VO2max) (individuals; post supplementation, 28 days): reduced aerobic capacity
- sub-maximal endurance performance (OBLA) (individuals; supplementation for 28 days): enhanced sub-maximal endurance performance by delaying OBLA
- muscular endurance during resistance training [8]: can significantly improve muscular endurance

SMILES: NCCS(=O)(=O)O [taurine]
- behavioral effect of supplemented diet (mice): antidepressant-like effect
